Structures can show the parent of a compound that is named as a salt.
Legend:
[1] = molecular target: T1, dopamine-D2 short (D2S) receptor (Homo sapiens, UniProt P14416); assay: Dopamine, D2s (Human Recombinant) Binding Assay; settings: human recombinant in CHO cells, [3H]Spiperone
T1 construct: expressed in transfected cells; host or cells: CHO cells
Experimental: Dopamine, D2s (Human Recombinant) Binding Assay
Receptor Source Human recombinant expressed in CHO cells
Radioligand: [^3H]Spiperone (20-60 Ci/mmol)
Control Compound Haloperidol
Incubation Conditions The reactions were carried out in 50 mM TRIS-HCl (pH 7.4) containing 120 mM NaCl, 5 mM KCl, 5 mM MgCl2, 1 mM EDTA for 60 minutes at 25 C. The reaction was terminated by rapid vacuum filtration onto glass fiber filters. Radioactivity trapped onto the filters was determined and compared to control values in order to ascertain any interactions of test compounds with the cloned dopamine-D2 short binding site (Literature Reference: Jarvis, K. R. et al. Journal of Receptor Research 1993, 13(1-4), 573-590; Gundlach, A. L. et al. Life Sciences 1984, 35, 1981-1988.)
(§1) The radioligand binding assays for dopamine-D2S, serotonin-5HT1A and serotonin-5HT2A were carried out at six different concentrations and the test concentrations were 0.5 nM, 1 nM, 10 nm, 100 nM, 300 nM and 1000 nM.

[2] = molecular target: T2, serotonin 5-HT2A receptor (Homo sapiens, UniProt P28223); assay: Serotonin, 5HT2a (Human) Binding Assay; settings: human cortex, [3H]-Ketanserin
T2 construct: Receptor Source Human Cortex; from tissue; host or cells: human cortex
Experimental: Serotonin, 5HT2a (Human) Binding Assay
Receptor Source Human Cortex
Radioligand: [^3H]-Ketanserin (60-90 Ci/mmol)
Control Compound Ketanserin
Incubation Conditions: The reactions were carried out in 50 mM TRIS-HCl (pH 7.6) at room temperature for 90 minutes. The reaction was terminated by rapid vacuum filtration onto glass fiber filters. Radioactivity trapped onto the filters was determined and compared to control values in order to ascertain any interactions of test compounds with the serotonin-5HT2A binding site (Literature Reference: Leysen, J. E. et al. Mol. Pharmacol. 1982, 21, 301-314; Martin, G. R. and Humphrey, P. P. A. Neuropharmacol. 1994, 33(3/4), 261-273.)
as §1

[3] = molecular target: T3, serotonin 5-HT1A receptor (Homo sapiens, UniProt P08908); assay: Serotonin, 5HT1A (Human Recombinant) Binding Assay; settings: human recombinant in HEK-293 cells, [3H]-8-OH-DPAT
T3 construct: expressed in transfected cells; host or cells: HEK-293 cells
T3 sequence (P08908 1-422): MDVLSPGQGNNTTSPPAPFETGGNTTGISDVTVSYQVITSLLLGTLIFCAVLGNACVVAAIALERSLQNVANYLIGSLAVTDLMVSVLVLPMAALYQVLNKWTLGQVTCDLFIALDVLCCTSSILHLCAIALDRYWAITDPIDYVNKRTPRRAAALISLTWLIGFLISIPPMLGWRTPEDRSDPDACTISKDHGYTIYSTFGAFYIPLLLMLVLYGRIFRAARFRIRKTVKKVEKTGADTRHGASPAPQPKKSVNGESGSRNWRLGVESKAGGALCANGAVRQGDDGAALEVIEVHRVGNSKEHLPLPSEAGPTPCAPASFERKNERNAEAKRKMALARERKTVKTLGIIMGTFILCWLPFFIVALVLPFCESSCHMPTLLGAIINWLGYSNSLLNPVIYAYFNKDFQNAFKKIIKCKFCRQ
Experimental: Serotonin, 5HT1A (Human Recombinant) Binding Assay
Receptor Source Human recombinant expressed in HEK-293 cells
Radioligand: [^3H]-8-OH-DPAT (221 Ci/mmol)
Control Compound: 8-OH-DPAT
Incubation Conditions The reactions were carried out in 50 mM TRIS-HCl (pH 7.4) containing 10 mM MgSO4, 0.5 mM EDTA and 0.1% Ascorbic acid at room temperature for 1 hour. The reaction was terminated by rapid vacuum filtration onto glass fiber filters. Radioactivity trapped onto the filters was determined and compared to control values in order to ascertain any interactions of test compounds with the cloned serotonin-5HT1A binding site (Literature Reference: Hoyer, D. et al. Eur. Journal Pharmacol. 1985, 118, 13-23; Schoeffter, P. and Hoyer, D. Naunyn-Schmiedeberg's Arch. Pharmac. 1989, 340, 135-138)
as §1

T2 sequence (P28223 whole entry): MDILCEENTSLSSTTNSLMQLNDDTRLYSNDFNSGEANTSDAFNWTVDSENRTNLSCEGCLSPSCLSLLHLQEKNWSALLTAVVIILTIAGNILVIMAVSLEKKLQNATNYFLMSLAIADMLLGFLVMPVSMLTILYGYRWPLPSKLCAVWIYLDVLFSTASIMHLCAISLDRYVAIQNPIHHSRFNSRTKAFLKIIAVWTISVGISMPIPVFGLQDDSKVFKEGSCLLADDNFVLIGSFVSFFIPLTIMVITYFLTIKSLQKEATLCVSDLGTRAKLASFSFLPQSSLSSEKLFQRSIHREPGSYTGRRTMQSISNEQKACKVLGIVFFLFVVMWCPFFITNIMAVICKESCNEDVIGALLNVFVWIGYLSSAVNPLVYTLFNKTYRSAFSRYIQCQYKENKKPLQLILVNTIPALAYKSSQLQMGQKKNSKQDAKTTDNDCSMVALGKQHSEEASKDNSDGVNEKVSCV
T1 sequence (P14416 1-414 isoform P14416-2): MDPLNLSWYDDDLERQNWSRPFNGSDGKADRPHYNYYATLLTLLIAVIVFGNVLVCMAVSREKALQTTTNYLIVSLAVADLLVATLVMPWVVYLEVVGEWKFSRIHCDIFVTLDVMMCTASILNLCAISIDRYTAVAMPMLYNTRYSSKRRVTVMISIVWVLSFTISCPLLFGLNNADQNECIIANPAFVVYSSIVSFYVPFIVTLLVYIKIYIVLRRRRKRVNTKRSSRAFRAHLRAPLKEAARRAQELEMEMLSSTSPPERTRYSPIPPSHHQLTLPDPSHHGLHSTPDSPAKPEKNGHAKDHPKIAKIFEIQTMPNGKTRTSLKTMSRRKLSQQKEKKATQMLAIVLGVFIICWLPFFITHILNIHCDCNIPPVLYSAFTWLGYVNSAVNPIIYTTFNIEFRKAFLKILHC

| SMILES | IC50 [1] | Ki [1] | IC50 [2] | Ki [2] | IC50 [3] | Ki [3] |
| --- | --- | --- | --- | --- | --- | --- |
| COc1ccccc1N1CCN(CCCCOc2ccc3c(=O)[nH]c(=O)[nH]c3c2)CC1 [Compound 10a, 7-(4-(4-(2-Methoxyphenyl)piperazin-1-yl)butoxy)quinazoline-2,4(1H, 3H)-dione hydrochloride] | 2.5 nM | 0.74 nM | 268 nM | 131 nM | 1.09 nM | 0.66 nM |
| O=c1[nH]c(=O)c2ccc(OCCCCN3CCN(c4cccc(Cl)c4Cl)CC3)cc2[nH]1 [Compound 10b, 7-(4-(4-(2,3-Dichlorophenyl)piperazin-1-yl)butoxy)quinazoline-2,4(1H, 3H)-dione hydrochloride] | 1.35 nM | 0.43 nM | 38.3 nM | 20.4 nM | 1.63 nM | 0.99 nM |
| O=c1[nH]c2ccccc2c(=O)n1CCCCN1CCN(c2cccc(Cl)c2Cl)CC1 [Compound 17b, 3-(4-(4-(2,3-Dichlorophenyl)piperazin-1-yl)butyl)quinazoline-2,4(1H, 3H)-dione hydrochloride] | 6.35 nM | 1.87 nM | 82.6 nM | 40.5 nM | 0.95 nM | 0.58 nM |

Reference: US8575185B2, “Compositions, synthesis, and methods of utilizing quinazolinedione derivatives” (Reviva Pharmaceuticals, Inc., priority 2009, dated 2013)
